Assay results taken from patent publication US20240270821A1, “GIP/GLP1/GCG TRI-RECEPTOR AGONISTS AND USES THEREOF” (priority 2023, published 2024).
Like-named read-outs stand apart in the source and are kept apart here. Starred links: 1 amine or outer side, 2 acyl side, 3 side chain; linkers in the order of their positions; H or OH if unused. Non-standard residues stand in square brackets, D forms with d. Groups on a side chain read outwards from the residue. No end group written: not given here. *: point of attachment. C18 diacid = O=C(O)CCCCCCCCCCCCCCCCC(=O)*; αMePhe(2-F) = C[C@](N)(Cc1ccccc1F)C(=O)O; γGlu = O=C(O)[C@H](CCC(=O)[*:2])N[*:1]; αMe4Pal = C[C@](N)(Cc1ccncc1)C(=O)O; αMeY = C[C@](N)(Cc1ccc(O)cc1)C(=O)O; 4Pal = N[C@@H](Cc1ccncc1)C(=O)O; αMeL = CC(C)C[C@](C)(N)C(=O)O; αMeS = C[C@](N)(CO)C(=O)O; Orn = NCCC[C@H](N)C(=O)O; AEEA = NCCOCCOCC(=O)O; Aib = CC(C)(N)C(=O)O

Assays:
Assay type in all cases: cell-based
hGcgR = hGcgR (Homo sapiens, UniProt P47871); assay: Functional cAMP activation in the presence of 0.1% casein (no HSA); settings: read-out: Relative cAMP EC50, hGcgR;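 also: intracellular cAMP rise after 30 min at 37 °C, read by HTRF against a cAMP standard curve, scaled from buffer only (0%) to maximal control ligand response (100%)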
Sequence of hGcgR (P47871 26-477): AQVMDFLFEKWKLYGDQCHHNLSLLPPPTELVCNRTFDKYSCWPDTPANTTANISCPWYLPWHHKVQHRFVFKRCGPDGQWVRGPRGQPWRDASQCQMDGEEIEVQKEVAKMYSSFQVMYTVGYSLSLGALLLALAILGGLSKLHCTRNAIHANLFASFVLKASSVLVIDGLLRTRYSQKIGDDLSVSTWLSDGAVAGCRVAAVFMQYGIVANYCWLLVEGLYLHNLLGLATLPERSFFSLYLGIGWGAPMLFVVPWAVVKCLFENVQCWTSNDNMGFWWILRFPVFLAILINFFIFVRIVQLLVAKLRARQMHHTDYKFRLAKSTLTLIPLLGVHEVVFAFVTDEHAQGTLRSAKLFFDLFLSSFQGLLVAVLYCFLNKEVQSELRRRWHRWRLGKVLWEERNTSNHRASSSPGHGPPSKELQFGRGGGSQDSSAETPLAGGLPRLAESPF

hGLP-1R [1] = target: T1, hGLP-1R (Homo sapiens, UniProt P43220); assay: as above; settings: read-out: Relative cAMP EC50, hGLP-1R;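 also: intracellular cAMP rise after 30 min at 37 °C read by HTRF, normalized between buffer only (0%) and maximal control ligand (100%), four-parameter variable-slope fit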
T1 sequence (P43220 24-463): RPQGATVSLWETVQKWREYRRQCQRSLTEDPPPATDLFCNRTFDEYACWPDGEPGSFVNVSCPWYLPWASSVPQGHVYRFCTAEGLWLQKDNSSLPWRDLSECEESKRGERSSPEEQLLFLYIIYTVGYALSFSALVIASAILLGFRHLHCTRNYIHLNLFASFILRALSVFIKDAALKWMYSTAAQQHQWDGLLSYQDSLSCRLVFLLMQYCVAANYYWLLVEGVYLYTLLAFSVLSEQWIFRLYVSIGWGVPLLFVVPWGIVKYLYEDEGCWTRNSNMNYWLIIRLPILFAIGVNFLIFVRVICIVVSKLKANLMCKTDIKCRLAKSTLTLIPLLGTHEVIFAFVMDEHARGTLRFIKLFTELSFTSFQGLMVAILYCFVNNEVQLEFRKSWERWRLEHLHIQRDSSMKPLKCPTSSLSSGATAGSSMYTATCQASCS

hGIPR [2] = target: T2, hGIPR (Homo sapiens, UniProt P48546); assay: Functional cAMP activity in the presence of 1% HSA; settings: read-out: cAMP Rel EC50, hGIPR
T2 sequence (P48546 22-466): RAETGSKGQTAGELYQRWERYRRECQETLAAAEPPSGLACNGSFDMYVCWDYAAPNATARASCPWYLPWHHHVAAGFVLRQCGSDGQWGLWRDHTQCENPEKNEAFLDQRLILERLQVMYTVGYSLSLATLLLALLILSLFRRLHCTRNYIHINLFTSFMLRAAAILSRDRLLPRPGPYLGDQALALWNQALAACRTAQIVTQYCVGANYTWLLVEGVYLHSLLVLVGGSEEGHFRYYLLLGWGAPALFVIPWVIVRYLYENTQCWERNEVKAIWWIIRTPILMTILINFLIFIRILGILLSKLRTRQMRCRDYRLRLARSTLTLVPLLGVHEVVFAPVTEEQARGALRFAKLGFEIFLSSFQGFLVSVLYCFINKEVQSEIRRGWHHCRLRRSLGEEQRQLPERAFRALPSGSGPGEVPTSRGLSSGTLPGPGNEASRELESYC

hGLP-1R [3] = target: T1, hGLP-1R; assay: Functional cAMP activity in the presence of 1% HSA; settings: read-out: cAMP Rel EC50, hGLP-1R
human GcgR = human GcgR (Homo sapiens, UniProt P47871); assay: Functional cAMP activity in the presence of 1% HSA; settings: read-out: cAMP Rel EC50, hGcgR
Sequence of human GcgR (P47871 26-477): as the sequence (P47871 26-477) above

hGIPR [4] = target: T2, hGIPR; assay: Functional cAMP activation in the presence of 0.1% casein (no HSA); settings: read-out: Relative cAMP EC50, hGIPR;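 as to Relative cAMP EC50, hGIPR: intracellular cAMP rise after 30 min at 37 °C read by HTRF against a standard curve, scaled between buffer alone (0%) and top control ligand concentration (100%), four-parameter fit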;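 as to Relative cAMP EC50, hGLP-1R: intracellular cAMP rise after 30 min at 37 °C read by HTRF, normalized between buffer only (0%) and maximal control ligand (100%), four-parameter variable-slope fit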
[5] = in the presence of 0.1% casein (no HSA), geometric mean
[6] = HEK-293 clonal cell line, in the presence of 1% HSA, geometric mean of relative EC50

EC50 (hGcgR) [nM] | EC50 (hGLP-1R [1]) [nM] | EC50 (hGIPR [4]) [nM] | Substance | EC50 (hGcgR; [5]) [nM] | EC50 (hGLP-1R [1]; [5]) [nM] | EC50 (hGIPR [2]) [nM] | EC50 (hGLP-1R [3]) [nM] | EC50 (human GcgR) [nM] | EC50 (hGIPR [4]; [5]) [nM] | EC50 (hGIPR [2]; [6]) [nM] | EC50 (hGLP-1R [3]; [6]) [nM] | EC50 (human GcgR; [6]) [nM]
 |  |  | Y[Aib]QGTFTSD[4Pal]SQ[αMeL]LD[Orn]K([AEEA-γGlu-C18 diacid])AQ[αMe4Pal]AFIE[αMeY]LLEGGPSSGAPPPSGS-NH2 [Example 932] | 2.67 | 1.61 | 25 | 249 | 513 | 0.188 |  |  | 
 |  |  | Y[Aib]QGT[αMePhe(2-F)]TSD[4Pal][αMeS]I[αMeL]LD[Orn]K([AEEA-γGlu-C18 diacid])AQ[αMe4Pal]EFI[dE][αMeY]LIEGGPPS[Aib]EPPPEGE-NH2 [Example 1190] | 1.68 | 0.765 | 0.954 | 77.4 | 192 | 0.0109 |  |  | 
 |  |  | Y[Aib]QGTFTSDFSK[αMeL]LDKK([AEEA-γGlu-C18 diacid])AQ[Aib]AFIEYLIE[Aib]GPSSGAPPPSGS-NH2 [Example 797] | 3.78 | 0.449 | 16.7 | 102 | 963 | 0.0781 |  |  | 
 |  |  | H-Y[Aib]QGTFTSD[4Pal]S[Orn][αMeL]LDKK([γGlu-γGlu-C18 diacid])AQ[αMe4Pal]AFIE[αMeY]LIAGGPSSGEPPPSGS-NH2 [Example 1014] | 3.62 | 0.718 | 5.62 | 86.4 | 277 | 0.0412 |  |  | 
 |  |  | H-Y[Aib]QGTFTSD[4Pal]S[Orn][αMeL]LD[Orn]K([γGlu-γGlu-C18 diacid])AQ[αMe4Pal]EFIE[αMeY]LLAGGPSSGAPPPSGSEE-NH2 [Example 996] | 14.9 | 98.1 |  |  |  | 0.2 | 11.2 | 4810 | 1160
 |  |  | H-Y[Aib]QGTFTSD[4Pal]SQ[αMeL]LDKK([γGlu-γGlu-C18 diacid])AQ[αMe4Pal]AFIEYLIAGGPSSGAPPPSGSEE-NH2 [Example 960] | 5.5 | 1.51 | 14.1 | 161 | 813 | 0.124 |  |  | 
 |  |  | H-Y[Aib]QGTFTSD[4Pal]SQ[αMeL]LD[Orn]K([AEEA-γGlu-C18 diacid])AQ[Aib]AFIE[αMeY]LLEGGPSSGAPPPSGS-NH2 [Example 911] | 9.53 | 1.09 | 26.6 | 255 | 2390 | 0.197 |  |  | 
 |  |  | H-Y[Aib]QGTFTSD[4Pal]SQ[αMeL]LD[Orn]K([dE-γGlu-C18 diacid])AQ[αMe4Pal]AFIQ[αMeY]LIA[Aib]GPSSGEPPPSGGGE-NH2 [Example 1130] | 13.3 | 0.641 | 3.73 | 44.5 | 1240 | 0.0441 |  |  | 
3.09 | 0.273 | 0.00882 | Y[Aib]QGT[αMePhe(2-F)]TSD[4Pal][αMeS]I[αMeL]LD[Orn]K([γGlu-γGlu-C18 diacid])AQ[αMe4Pal]EFI[dE][αMeY]LIEGGPSSGEPPPEGGGE-NH2 [Example 762] |  |  | 0.692 | 27.6 | 119 |  |  |  | 
5.43 | 1.13 | 0.212 | H-Y[Aib]QGT[αMePhe(2-F)]TSD[4Pal][αMeS]I[αMeL]LD[Orn]K([γGlu-γGlu-C18 diacid])AQ[Aib][Orn]FI[dE][αMeY]LSEGGPSSGEPPPSGTEE-NH2 [Example 561] |  |  | 10.1 | 76.1 | 544 |  |  |  | 
 |  |  | H-Y[Aib]QGT[αMePhe(2-F)]TSD[4Pal][αMeS]I[αMeL]LD[Orn]K([γGlu-γGlu-C18 diacid])AQ[αMe4Pal]EFI[dE][αMeY]LVEGGPSSGAPPPSGE-NH2 [Example 1160] | 2.41 | 0.365 | 0.598 | 31.2 | 183 | 0.00773 |  |  | 

Substance | EC50 (hGcgR) [nM] | EC50 (hGLP-1R [1]) [nM] | EC50 (hGIPR [4]) [nM] | EC50 (hGcgR; [5]) [nM] | EC50 (hGLP-1R [1]; [5]) [nM] | EC50 (hGIPR [2]) [nM] | EC50 (hGLP-1R [3]) [nM] | EC50 (human GcgR) [nM] | EC50 (hGIPR [4]; [5]) [nM] | EC50 (hGIPR [2]; [6]) [nM] | EC50 (hGLP-1R [3]; [6]) [nM] | EC50 (human GcgR; [6]) [nM]
H-Y[Aib]QGT[αMePhe(2-F)]TSD[4Pal]SI[αMeL]LD[Orn]K([AEEA-γGlu-C18 diacid])AQ[αMe4Pal][Orn]FI[dE][αMeY]LIEGGPSSGAPPPESE-NH2 [Example 755] | 2.31 | 0.175 | 0.00805 |  |  | 1.39 | 23.9 | 274 |  |  |  | 
